From ChEMBL document CHEMBL4342407, “Thieno[2,3-d]pyrimidine as a promising scaffold in medicinal chemistry: Recent advances” (Bioorg Med Chem, 2019)
Values belong to the compound of their own block, whether it stands above or below them.

Assays:
[1] = system: Rattus norvegicus; test: Antiinflammatory activity in Sprague-Dawley rat assessed as protection against carrageenan-induced edema at 40 mg/kg, po pretreated for 1 hr followed by carrageenan challenge and measured after 3 hrs by mercury plethysmometer relative to control; assay type: functional
[2] = Ulcerogenic activity in Wistar albino rat assessed as ulcer index at 250 mg/kg, ip pretreated for 1 hr followed by pylorus ligation and measured at 4 hrs post ligation; assay type: toxicity, organism-based; conditions: in vivo
[3] = system: Rattus norvegicus; test: Anti-ulcer activity in Wistar albino rat assessed as reduction in pylorus ligation induced ulcer at 250 mg/kg, ip pretreated for 1 hr followed by pylorus ligation and measured at 4 hrs post ligation; assay type: functional
[4] = system: Rattus norvegicus; test: Antiinflammatory activity in po dosed Wistar rat assessed as reduction in carrageenan-induced paw edema pretreated for 1 hr followed by carrageenan challenge and measured over 2 to 4 hrs post carrageenan challenge by plethysmography; assay type: functional
[5] = system: Rattus norvegicus; test: Antiinflammatory activity in Wistar rat assessed as inhibition of cotton pellet-induced granuloma at 75 mg/kg, po administered daily for 7 days and measured on day 8 relative to control; assay type: functional
[6] = system: Rattus norvegicus; test: Antiinflammatory activity in Wistar rat model of Freund's adjuvant-induced arthritis assessed as inhibition of arthritis by measuring reduction in paw volume at 75 mg/kg, po administered once daily for 8 days starting from day 7 post Freund's adjuvant treatment and measured after 18 days by mercury plethysmography relative to control; assay type: functional
[7] = system: Mus musculus; test: Antiinflammatory activity in Swiss mouse assessed as inhibition of TPA-induced ear edema at 1 mg/ear applied topically and measured 4 hrs post-TPA challenge relative to control; assay type: functional
[8] = system: MCF7; test: Antiproliferative activity against human MCF7 after 24 hrs by MTT assay; assay type: functional, cell-based; conditions: MCF7, 24 h
[9] = system: HeLa; test: Antiproliferative activity against human HeLa after 24 hrs by MTT assay; assay type: functional, cell-based
[10] = system: MCF7; test: Antiproliferative activity against human MCF7 by MTT assay; assay type: functional, cell-based
[11] = system: HepG2; test: Antiproliferative activity against human HepG2 cells by MTT assay; assay type: functional, cell-based
[12] = system: ECa-109 cell line; test: Antiproliferative activity against human EC109 at 50 ug/ml after 48 hrs by MTT assay; assay type: functional; conditions: ECa-109, 48 h
[13] = system: HepG2; test: Antiproliferative activity against human HepG2 at 50 ug/ml after 48 hrs by MTT assay; assay type: functional; conditions: HepG2, 48 h
[14] = system: MGC-803; test: Antiproliferative activity against human MGC803 at 50 ug/ml after 48 hrs by MTT assay; assay type: functional; conditions: MGC-803, 48 h
[15] = system: HepG2; test: Antiproliferative activity against human HepG2 after 24 hrs by MTT assay; assay type: functional, cell-based; conditions: HepG2, 24 h
[16] = system: HEp-2; test: Antiproliferative activity against human Hep2 after 24 hrs by MTT assay; assay type: functional, cell-based; conditions: HEp-2, 24 h
[17] = system: PC-3; test: Antiproliferative activity against human PC3 after 24 hrs by MTT assay; assay type: functional, cell-based; conditions: PC-3, 24 h
[18] = system: Bacillus subtilis; test: Antibacterial activity against Bacillus subtilis assessed as zone inhibition at 500 ug/ml by cup plate agar diffusion method; assay type: functional; conditions: read-out: IZ
[19] = system: Staphylococcus aureus; test: Antibacterial activity against Staphylococcus aureus assessed as zone inhibition at 500 ug/ml by cup plate agar diffusion method; assay type: functional; conditions: read-out: IZ
[20] = system: Escherichia coli; test: Antibacterial activity against Escherichia coli assessed as zone inhibition at 500 ug/ml by cup plate agar diffusion method; assay type: functional; conditions: read-out: IZ
[21] = system: Pseudomonas aeruginosa; test: Antibacterial activity against Pseudomonas aeruginosa assessed as zone inhibition at 500 ug/ml by cup plate agar diffusion method; assay type: functional; conditions: read-out: IZ
[22] = system: Candida albicans; test: […] activity against Candida albicans assessed as zone inhibition at 500 ug/ml by cup plate agar diffusion method; assay type: functional; conditions: read-out: IZ

Structure (SMILES): C[C@]12CC[C@H]3[C@@H](CC=C4CC(O)CC[C@@]43C)[C@@H]1CC[C@@H]2c1csc(N)c1C(=O)NN (some centres not stated)
Activity [1]: 87% | UI [2]: 0.62 | inhibition in vivo at 250 mg/kg [3]: 82.7%

Structure (SMILES): O=C(NN1C(S)=Nc2sc3c(c2C1c1ccccc1)CCCC3)c1ccccc1 (configuration not stated)
ED50 [4]: 62.7 mg/kg | inhibition in vivo at 75 mg/kg [5]: 41.8% | inhibition in vivo at 75 mg/kg [6]: 25.6% | inhibition (INH) [7]: 57.9%

Structure (SMILES): C[C@]12CC[C@H]3[C@@H](CC=C4CC(O)CC[C@@]43C)[C@@H]1CC[C@@H]2c1csc(N)c1-c1nnc(S)n1-c1ccccc1 (some centres not stated)
Activity [1]: 96% | UI [2]: 1.29 | inhibition in vivo at 250 mg/kg [3]: 64.2%

IC50 [8]: 18.9 µM | IC50 [9]: 50 µM
Structure (SMILES): Nc1c(C(=O)Nc2ccc(Cl)cc2)sc2nc(N3CCOCC3)nc(-c3ccccc3)c12

IC50 [10]: 83.6 µM | IC50 [11]: > 100 µM
Structure (SMILES): Cc1ccccc1CNc1nc(C(F)(F)F)nc2sc3c(c12)CCC3

Structure (SMILES): CCOP(=O)(OCC)C(Nn1c(C)nc2sc(CC)cc2c1=O)c1ccccc1 (configuration not stated)
inhibition at 50 µg/mL [12]: 66.3% | inhibition at 50 µg/mL [13]: 66% | inhibition at 50 µg/mL [14]: 50.3%

IC50 [8]: 27.8 µM | IC50 [9]: 61.9 µM
Structure (SMILES): COc1ccc(NC(=O)c2sc3nc(N4CCOCC4)nc(-c4ccccc4)c3c2N)cc1

IC50 [15]: 26.4 µM | IC50 [8]: 24 µM | IC50 [17]: 18.4 µM | IC50 [9]: 15.4 µM
Structure (SMILES): Cc1c(C(=O)/C=C/c2cccs2)sc2nc(S)n(-c3ccccc3)c(=O)c12
IC50 [16]: 25.7 µM

Structure (SMILES): CCc1cc2c(=O)n(/N=C/c3ccccc3)c(C)nc2s1
inhibition at 50 µg/mL [12]: 51.4% | inhibition at 50 µg/mL [13]: 57% | inhibition at 50 µg/mL [14]: 74.6%

Structure (SMILES): COc1cccc2c1C(=O)c1c(O)c3c(c(O)c1C2=O)C[C@@](O)(C(=O)CO)C[C@@H]3O[C@H]1C[C@H](N)[C@H](O)[C@H](C)O1 [DOXORUBICIN]
IC50 [16]: 6.32 µM

Structure (SMILES): CC(=C(C#N)C(=O)NN)[C@H]1CC[C@H]2[C@@H]3CC=C4CC(O)CC[C@]4(C)[C@H]3CC[C@]12C (some centres not stated)
Activity [1]: 90% | UI [2]: 2.11 | inhibition in vivo at 250 mg/kg [3]: 41.4%

Structure (SMILES): CC(=O)NN1C(S)=Nc2sc3c(c2C1c1ccccc1)CCCC3 (configuration not stated)
ED50 [4]: 66.7 mg/kg | inhibition in vivo at 75 mg/kg [5]: 39.9% | inhibition in vivo at 75 mg/kg [6]: 28.9% | inhibition (INH) [7]: 35.1%

Structure (SMILES): c1csc(C2=Nc3ccccc3SC(c3cc4cncnc4s3)C2)c1 (configuration not stated)
zone of inhibition at 500 µg/mL [18]: 19.4 mm | zone of inhibition at 500 µg/mL [19]: 19.2 mm | zone of inhibition at 500 µg/mL [20]: 19.4 mm | zone of inhibition at 500 µg/mL [21]: 19.4 mm | zone of inhibition at 500 µg/mL [22]: 19.6 mm

Structure (SMILES): CCc1cc2c(=O)n(NC(c3cccc([N+](=O)[O-])c3)P(=O)(OC(C)C)OC(C)C)c(C)nc2s1 (configuration not stated)
inhibition at 50 µg/mL [12]: 45.3% | inhibition at 50 µg/mL [13]: 90.8% | inhibition at 50 µg/mL [14]: 63.6%

Structure (SMILES): C[C@]12CC[C@H]3[C@@H](CC=C4CC(O)CC[C@@]43C)[C@@H]1CC[C@@H]2c1csc(N)c1C(=O)NNC(=S)Nc1ccccc1 (some centres not stated)
Activity [1]: 81% | UI [2]: 2.11 | inhibition in vivo at 250 mg/kg [3]: 41.4%

IC50 [8]: 40.4 µM | IC50 [9]: 45.8 µM
Structure (SMILES): CC(=O)O[C@H]1C(=O)[C@@]2(C)[C@H]([C@H](OC(=O)c3ccccc3)[C@]3(O)C[C@H](OC(=O)[C@H](O)[C@@H](NC(=O)c4ccccc4)c4ccccc4)C(C)=C1C3(C)C)[C@]1(OC(C)=O)CO[C@@H]1C[C@@H]2O [PACLITAXEL]

IC50 [8]: 52.6 µM | IC50 [9]: 40.7 µM
Structure (SMILES): Nc1c(C(=O)Nc2ccccc2)sc2nc(N3CCOCC3)nc(-c3ccccc3)c12

IC50 [10]: > 100 µM | IC50 [11]: > 100 µM
Structure (SMILES): COc1ccccc1CNc1nc(C(F)(F)F)nc2sc3c(c12)CCC3

IC50 [15]: 30.1 µM | IC50 [8]: 25.8 µM | IC50 [17]: 27.7 µM | IC50 [9]: 17.8 µM
Structure (SMILES): Cc1c(C(=O)/C=C/c2cc(Br)cs2)sc2nc(S)n(-c3ccccc3)c(=O)c12
IC50 [16]: 31.3 µM
